Laboratory results: publication PMC3266168 (Journal of Medicinal Chemistry, 2011)
In brackets after ≈: the same amount, converted by molar mass.

Key:
F. tularensis FabI = F. tularensis FabI (Francisella tularensis subsp. tularensis, UniProt Q5NGQ3); format: biochemical
F. tularensis = assay: microbe, parasite or virus in culture; format: cell-based; settings: Francisella tularensis
[1] = tested on: E.coli TolC mutant (BW251113-TolC-); format: cell-based
E.coli (BW251113) = format: cell-based

Sequence of F. tularensis FabI (Q5NGQ3 1-260): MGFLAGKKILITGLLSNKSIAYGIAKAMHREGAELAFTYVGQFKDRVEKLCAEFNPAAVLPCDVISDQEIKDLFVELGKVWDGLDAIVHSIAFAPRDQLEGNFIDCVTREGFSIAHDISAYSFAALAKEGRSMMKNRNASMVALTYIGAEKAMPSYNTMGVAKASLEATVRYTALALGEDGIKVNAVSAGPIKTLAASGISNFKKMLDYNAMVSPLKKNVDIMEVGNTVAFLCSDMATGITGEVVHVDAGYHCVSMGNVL

| Structure (SMILES) | L.E. (Ligand Efficiency) (F. tularensis FabI) | MIC (F. tularensis) | fold increase in activity (IC50) over hit compound 2 (F. tularensis FabI) | MIC [1] | MIC (E.coli (BW251113)) |
| --- | --- | --- | --- | --- | --- |
| Nc1ncc(Cc2ccc(Cl)cc2)s1 [Compound 1] | 0.41 | – | – | – | – |
| Clc1ccc(Cn2cnc3ccccc32)cc1 [Compound 2, 1-(4-chlorobenzyl) benzimidazole] | 0.37 | – | – | – | – |
| Clc1ccc(Cn2cnc3ccccc32)cc1Cl [Compound 6] | – | 15.6 µg/mL (≈ 56.3 µM) | ~10 fold | – | – |
| Cc1cc2ncn(Cc3ccc(Cl)c(Cl)c3)c2cc1C [Compound 9] | – | – | 100 fold | 6.25 (3) μg/mL | >200 (3) μg/mL |
